The values below come from patent US11980772B2, “Method of photodynamic therapy (PDT) for bladder cancer” (priority 2015, dated 2024).

The subject of data set [1] is patient-derived bladder tumor. The experiment in a line: Establishing in vitro primary cell cultures from bladder tumors resected after HAL/blue light TUR. Format: cell-based, human. The note with it: HAL/blue light group; blue light 1.5 to 12.5 mW/cm^2, 0.2 to 15.0 J/cm^2. Here is the method: A solution of HAL (Hexvix®) was instilled into the bladder of patients through a catheter and was left in the bladder for about 1 hour. If the patient could not retain the composition for about 1 hour, at least about 1 hour was allowed to pass from the instillation of Hexvix® to the start of exposing the inside of the bladder to light. After evacuation of Hexvix®, a commercially available blue-light cystoscope was inserted into the bladder and a TUR was carried out by exposing the inside of the bladder to white light for the visual inspection, subsequent blue light exposure for fluorescence detection of bladder cancer lesions, resection of the detected lesions under white light and monitoring of the completeness of the resection by use of blue light. Blue light was provided at a fluence rate of 1.5 to 12.5 mW/cm^2 and a light dose of 0.2 to 15.0 J/cm^2 […] at a fluence rate of 3.0 to 22.0 mW/cm^2 and a light dose of 0.4 to 26.5 J/cm^2.
The resected bladder tumors were processed according to methods known in the art and primary cell cultures were established from said patient-derived bladder tumor under appropriate conditions in culture medium. […]

In data set [2] the test system is non-muscle invasive papillary bladder cancer (NMIBC). The data set can be described thus: Phase III multicenter study, tumor recurrence after HAL blue light cystoscopy/TUR. The following applies: 9 months follow-up; for Tumor recurrence rate, All: HAL group (n = 271). Format: in vivo, human. Here is the method:
A prospective, randomized, comparative, controlled phase III multicenter study was carried out in patients with non-muscle invasive papillary bladder cancer (NMIBC). The study population comprised 551 patients which were randomized into two groups (see below). The groups were similar in age, gender, race, bladder cancer history and prior intravesical therapy.
HAL group: 271 patients. The method of the invention was carried out as follows: A solution of HAL (Hexvix®) was instilled into the bladder of patients through a catheter and was left in the bladder for about 1 hour. If the patient could not retain the composition for about 1 hour, at least about 1 hour was allowed to pass from the instillation of Hexvix® to the start of exposing the inside of the bladder to light.
After evacuation of Hexvix®, cystoscopy was carried out with a commercially available cystoscope (blue and white light). The inside of the bladder was first exposed to white light and visually assessed, followed by exposure to blue light to detect cancerous lesions in the bladder. Transurethral resection (TUR) of the detected lesions was carried out under white light and completion of the resection was assessed under blue light.
White light group: 280 patients. Cystoscopy and TUR of bladder cancer under white light only, no HAL.
Patients from both groups with histologically confirmed Ta or T1 lesions were followed up by white light cystoscopy after 3, 6 and 9 months. All tumor recurrences during the 9 months follow-up period were histologically confirmed.
50 patients in the HAL group (18.5%) and 55 patients in the white light group (19.6%) received BCG treatment during the 9 months follow-up period. BCG (Bacillus Calmette-Guérin) is an immunotherapy agent for the treatment of bladder cancer. It is usually repeatedly instilled into the bladder.
Mitomycin is a chemotherapeutic agent for the treatment of bladder cancer. It may be instilled after TUR (single instillation) to e.g. prevent tumor cell seeding, i.e. re-attachment to the bladder wall of tumor cells which were dislocated during resection. Mitomycin was administered after TUR to 16 patients in the HAL group (5.9%) and to 20 patients in the white light group (7.1%).

Data set [3] has as its system bladder cancer. The following applies: patients with HAL-guided TUR prior to cystectomy, Kaplan-Meier, cited from earlier work.
Data set [4] deals with superficial bladder tumors (rat bladder carcinoma cell line). The experiment in a line: PDT with HAL and blue light in orthotopic rat bladder tumor model. The note with it: HAL 2 mg/ml (8 mM), 1 hour. In kind it is in vivo. The method, then:
A rat bladder carcinoma cell line was used in these experiments to establish superficial bladder tumors in Female Fischer rats weighing 150-175 g as described in Francois, et al., J. Urol. 190(2), 2013, 731-736. The animals were used in the experiments 5 days after tumor cell inoculation.
Lyophilized HAL (in the form of Hexvix® powder) was dissolved in PBS to a final concentration of 2 mg/ml (8 mM). 0.5 ml of the solution was instilled into the rat bladder and was left in the bladder for about 1 hour. After evacuation of the HAL solution, 0.5 ml of PBS was instilled into the bladder and whole bladder irradiation with blue light at a fluence rate of 3.5 or 7.0 mW/cm^2 was performed using a 170 mW Modulight laser model ML 6500-405 delivering light at a wavelength of 401 nm, coupled to a fiber with a cylindrical diffuser (1×5 mm) model RD05/500/800 (Medlight, Ecublens, Switzerland) placed in a central position in the bladder. Rats received a blue light dose of 4.0 J/cm^2 (fluence rate 3.5 mW/cm^2) or 7.5 J/cm^2 (fluence rate 7.0 mW/cm^2)
For control, no Hexvix was instilled and only blue light irradiation was carried out at the aforementioned fluence rates/light doses.
The rats were sacrificed 48 hours after illumination by an overdose of pentobarbital. […]

For data set [5], the system named is bladder cancer. The following applies: cited from earlier work.
The subject of data set [6] is MIBC. The following applies: neoadjuvant cisplatin-containing chemotherapy; cited from earlier work.
Data set [7] concerns bladder cancer. The note with it: 5-ALA PDT after mitomycin, red laser light 635 nm, 18 mW/cm^2; cited from earlier work.
Data set [8] deals with bladder cancer. The following applies: 5-ALA instilled, red light 633 nm, 30 and 50 J/cm^2; cited from earlier work.
For data set [9], the system named is bladder cancer. The note with it: cited from earlier work. This is another data set of the same source.

Several values for one entry are separate records, joined by “and”; a condition that tells them apart may be missing. Equal values may be shown once. Entries after “also recorded” stand apart in the source; their conditions may differ.

In the case of `CCCCCCOC(=O)CCC(=O)CN` [HAL, n-hexyl 5-amino-4-oxo-pentanoate], the “establishment of in vitro primary cell cultures from resected bladder tumors” value in data set [1] is listed as “No in vitro primary cell cultures could be established”. Moreover, the “Tumor recurrence rate, All” value in [2] (Table 1 and text) is 42.7% and 47.2%; in data set [2] (Table 2), 47.2%. Moreover, the “Tumor recurrence rate, Received BCG and/or mitomycin” value in [2] (HAL group) turned out to be 41.5%. The “Tumor recurrence rate, Received no BCG and/or mitomycin” value in data set [2] (HAL group) amounted to 49.0%. For the same compound, the “Tumor recurrence rate, No BCG” value in [2] (HAL group, patients who did not receive BCG) amounted to 49.3%. Besides, the “Tumor recurrence rate, Received BCG” value in data set [2] (HAL group, patients who received BCG) was 38.0%. For the same compound, in [3] (56.6% with white light), the “3-year overall survival (OS)” value was 65.0%. Also, in data set [3] (58.2% with white light TUR alone), the “3-year recurrence-free survival (RFS)” value is reported as 69.8%. Besides, the “bladder histology 48 hours after illumination (PDT effect)” value in [4] (blue light 3.5 mW/cm^2, 4 J/cm^2, n=2, one animal (50%) each) was “no inflammation, persistent and chorion infiltrating tumors; also recorded: looked less compact and the superficial layer of said tumor was destroyed”; in data set [4] (blue light 7.0 mW/cm^2, 7.5 J/cm^2, n=2) it was “increased tissue thickness/inflammation (both signs of PDT effect) and disintegrating/less compact tumor tissue”. Moreover, the “patients tumor-free at 21 months” value in data set [5] (2 of 17 patients) is 11.8%. For the same compound, in data set [5] (4 of 17 patients), the “patients tumor-free at 9 months” value is 23.5%. In data set [5] (4 patients of 17), the “patients with severe adverse effects” value is on record as 23.5%. Also, the “patients tumor-free at 6 months” value in data set [5] (9 of 17 patients) is 52.9%. In addition, the “number of adverse effects reported” value in data set [5] (HAL 8 mM and 16 mM, white light 25-100 J/cm^2, 3 PDTs, 17 patients) is reported as 128. Moreover, in data set [5] (HAL 8 mM and 16 mM, white light, 3 PDTs), the “patients with adverse effects” value was “about 88%”. In addition, the “number of severe adverse effects reported” value in data set [5] (in 4 patients, 2 considered to relate to the PDT) is 7.
In the case of `N.N.[Cl][Pt][Cl]` [cisplatin], the “absolute improvement in survival at 5 years” value in [6] was 5%.
On to `NCC(=O)CCC(=O)O` [5-ALA, 5-aminolevulinic acid], for which the “light dose considered the upper limit of tolerability in terms of side effects” value in data set [7] is reported as 25 J/cm^2. Besides, in data set [8], the “patients whose irritating urinary symptoms did not resolve before 2 weeks” value is 13% and the “side effects in the form of irritating urinary symptoms, occurrence” value is given as “occurred in all patients”. The “complaints of urinary frequency and urgency, occurrence” value in [9] (5-ALA, white light 100 J/cm^2, 12 patients treated) was “all patients complained about urinary frequency and urgency”. Moreover, in data set [9] (of 12 patients treated), the “patients whose symptoms persisted for 3 weeks” value is given as 5 patients and the “patients whose symptoms subsided within a week” value is on record as 7 patients.
